Key:
Y(T257F/S264A) = Y(T257F/S264A) (Caenorhabditis elegans, UniProt G5ECD3, I265S/I267V/I270L/N259Q/N305R/S264A/T257F/T269V/V261F/V273I); assay type: cell-based, C. elegans
Procedure: (§1) Electrophysiology: Plasmids containing wild-type and mutagenized GABAA receptor subunits were linearized and transcribed in vitro using T3 RNA polymerase (mMessage mMachine T3 kit, Ambion, Austin Tex.). UNC-49B mRNA was injected into Xenopus laevis oocytes at 0.5 μg/μl either alone, or in a mixture with 0.5 μg/μl UNC-49C. […] The injection volume ranged between 27.6 nl to 50.6 nl. […] Cells were voltage clamped at −60 mV. All recordings were performed at room temperature.
(§2) Important residues in the X segment were tested by substituting UNC-49C residues into the Y chimera. […] These divergent X segment residues were tested by mutating them from UNC-49B to UNC-49C amino acids in the Y chimera background.

Y(S264A) = Y(S264A) (Caenorhabditis elegans, UniProt G5ECD3, I265S/I267V/I270L/N259Q/N305R/S264A/T269V/V261F/V273I); assay type: cell-based, C. elegans; conditions: at EC50 GABA
Sequence of Y(S264A) (G5ECD3 23-506, stated change not applied): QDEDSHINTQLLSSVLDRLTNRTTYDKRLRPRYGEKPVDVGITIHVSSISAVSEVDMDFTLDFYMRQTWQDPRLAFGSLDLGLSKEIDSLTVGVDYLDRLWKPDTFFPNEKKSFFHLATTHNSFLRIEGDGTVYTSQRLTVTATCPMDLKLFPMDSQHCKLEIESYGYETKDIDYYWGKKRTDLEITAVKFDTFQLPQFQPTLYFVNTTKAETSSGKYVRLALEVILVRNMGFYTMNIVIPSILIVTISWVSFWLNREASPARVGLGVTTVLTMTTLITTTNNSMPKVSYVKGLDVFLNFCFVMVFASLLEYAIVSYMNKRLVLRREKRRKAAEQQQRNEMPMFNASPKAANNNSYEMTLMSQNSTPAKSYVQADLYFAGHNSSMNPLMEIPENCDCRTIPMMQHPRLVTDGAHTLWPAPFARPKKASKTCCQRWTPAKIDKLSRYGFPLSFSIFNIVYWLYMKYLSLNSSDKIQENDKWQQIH
Procedure: as §1, §2

Y(T257F/M258L) = Y(T257F/M258L) (Caenorhabditis elegans, UniProt G5ECD3, I265S/I267V/I270L/M258L/N259Q/N305R/T257F/T269V/V261F/V273I); assay type: cell-based, C. elegans; conditions: at EC50 GABA
Sequence of Y(T257F/M258L) (G5ECD3 23-506, stated change not applied): as above
Procedure: as §1, §2

Y(T257F/M258L/S264A) = Y(T257F/M258L/S264A) (Caenorhabditis elegans, UniProt G5ECD3, I265S/I267V/I270L/M258L/N259Q/N305R/S264A/T257F/T269V/V261F/V273I); assay type: cell-based, C. elegans; conditions: at EC50 GABA
Sequence of Y(T257F/M258L/S264A) (G5ECD3 23-506, stated change not applied): as above
Procedure: as §1, §2

Y(T257F) = Y(T257F) (Caenorhabditis elegans, UniProt G5ECD3, I265S/I267V/I270L/N259Q/N305R/T257F/T269V/V261F/V273I); assay type: cell-based, C. elegans
Sequence of Y(T257F) (G5ECD3 23-506, stated change not applied): as above
Procedure: as §1, §2

QF-R [1] = assay type: cell-based, C. elegans
Procedure: as §1
(§3) The conserved residues were tested in the UNC-49C M1 domain in a similar way. […] To test the importance of these conserved residues, they were substituted into an UNC-49B subunit with the linker mutation N305R to create the ‘QF-R’ subunit (FIG. 3c).

QF-R [2] = target: QF-R (Caenorhabditis elegans, UniProt G5ECD3, N259Q/N305R/V261F); assay type: cell-based, C. elegans; conditions: QF-R; at EC50 GABA
Sequence of QF-R (Caenorhabditis elegans, UniProt G5ECD3, N259Q/N305R/V261F) (G5ECD3 23-506, stated change not applied): as above
Procedure: as §1, §3

[3] = system: UNC-49B homomers containing the M1 mutations; assay: Desensitization in oocytes; assay type: cell-based, C. elegans; conditions: oocytes expressing UNC-49B homomers containing the M1 mutations
M1-M2 chimera = M1-M2 chimera (Caenorhabditis elegans, UniProt G5ECD3+G5EE10); assay: Xenopus oocyte two electrode voltage-clamp, GABA-evoked currents; assay type: cell-based, C. elegans; conditions: 5 μM PS, 1000 μM GABA, versus M1-M2-linker chimera
Sequence of M1-M2 chimera (G5ECD3 23-506, change not shown): as the sequence (G5ECD3 23-506, stated change not applied) above
Sequence of M1-M2 chimera (G5EE10 256-304, change not shown): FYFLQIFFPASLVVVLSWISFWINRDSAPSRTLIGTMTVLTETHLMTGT
Procedure: as §1
(§4) The strategy represents a deletion of UNC-49C material from the carboxy to amino terminal end of the transmembrane portion of the subunit, which is then replaced with UNC-49B sequences.

X(V273I) = X(V273I) (Caenorhabditis elegans, UniProt G5ECD3, I262F/M258L/N259Q/N305R/S264A/T257F/V261F/V273I); assay type: cell-based, C. elegans; conditions: at EC50 GABA
Sequence of X(V273I) (G5ECD3 23-506, stated change not applied): as the sequence (G5ECD3 23-506, stated change not applied) above
Procedure: as §1

X(I265S, Q259N) = assay type: cell-based, C. elegans; conditions: residue 259 reverted to asparagine, versus X(I265S)
Procedure: as §1

Y chimera = Y chimera (Caenorhabditis elegans, UniProt G5ECD3, I265S/I267V/I270L/N259Q/N305R/T269V/V261F/V273I); assay type: cell-based, C. elegans; conditions: Y chimera; at EC50 GABA
Sequence of Y chimera (G5ECD3 23-506, stated change not applied): as above
Procedure: as §1

Z chimera = Z chimera (Caenorhabditis elegans, UniProt G5ECD3, A281S/E280D/L277I/N259Q/N305R/S282A/V261F); assay type: cell-based, C. elegans; conditions: at EC50 GABA
Sequence of Z chimera (G5ECD3 23-506, stated change not applied): as above
Procedure: as §1

YZ chimera = YZ chimera (Caenorhabditis elegans, UniProt G5ECD3, A281S/E280D/I265S/I267V/I270L/L277I/N259Q/N305R/S282A/T269V/V261F/V273I); assay type: cell-based, C. elegans; conditions: at EC50 GABA
Sequence of YZ chimera (G5ECD3 23-506, stated change not applied): as above
Procedure: as §1

[4] = target: double chimera (M1 + linker) (Caenorhabditis elegans, UniProt G5ECD3+G5EE10); assay type: cell-based, C. elegans; conditions: at EC50 GABA
Sequence of double chimera (M1 + linker) (G5ECD3 23-506, change not shown): as the sequence (G5ECD3 23-506, stated change not applied) above
Sequence of double chimera (M1 + linker) (G5EE10 entry or part of it, change not shown): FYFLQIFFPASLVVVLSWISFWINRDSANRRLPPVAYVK
Procedure: as §1

XY chimera = assay type: cell-based, C. elegans; conditions: XY chimera versus X chimera
Procedure: as §1

X(T269V) = X(T269V) (Caenorhabditis elegans, UniProt G5ECD3, I262F/M258L/N259Q/N305R/S264A/T257F/T269V/V261F); assay type: cell-based, C. elegans; conditions: at EC50 GABA
Sequence of X(T269V) (G5ECD3 23-506, stated change not applied): as the sequence (G5ECD3 23-506, stated change not applied) above
Procedure: as §1

X(I267V) = X(I267V) (Caenorhabditis elegans, UniProt G5ECD3, I262F/I267V/M258L/N259Q/N305R/S264A/T257F/V261F); assay type: cell-based, C. elegans; conditions: at EC50 GABA
Sequence of X(I267V) (G5ECD3 23-506, stated change not applied): as above
Procedure: as §1

UNC-49B homomer = UNC-49B homomer (Caenorhabditis elegans, UniProt G5ECD3); assay type: cell-based, C. elegans; conditions: UNC-49B homomer
Sequence of UNC-49B homomer (G5ECD3 entry or part of it): as the sequence (G5ECD3 23-506, stated change not applied) above
Procedure: as §1

UNC-49B/C heteromer = UNC-49B/C heteromer (Caenorhabditis elegans, UniProt G5ECD3+G5EE10); assay type: cell-based; conditions: UNC-49B/C heteromer
Sequence of UNC-49B/C heteromer (G5EE10 entry or part of it): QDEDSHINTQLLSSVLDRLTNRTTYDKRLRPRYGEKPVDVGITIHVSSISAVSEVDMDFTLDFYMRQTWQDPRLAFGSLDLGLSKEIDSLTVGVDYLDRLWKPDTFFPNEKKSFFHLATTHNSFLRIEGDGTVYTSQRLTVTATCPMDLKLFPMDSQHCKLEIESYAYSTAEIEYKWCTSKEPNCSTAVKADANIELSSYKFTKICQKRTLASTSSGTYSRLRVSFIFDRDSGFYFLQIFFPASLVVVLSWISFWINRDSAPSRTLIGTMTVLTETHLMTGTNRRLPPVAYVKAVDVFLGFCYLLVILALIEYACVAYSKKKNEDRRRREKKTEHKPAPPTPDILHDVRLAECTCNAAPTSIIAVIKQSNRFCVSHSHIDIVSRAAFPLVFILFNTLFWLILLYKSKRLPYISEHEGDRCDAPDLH
Sequence of UNC-49B/C heteromer (G5ECD3 entry or part of it): as the sequence (G5ECD3 23-506, stated change not applied) above
Procedure: as §1

M1-M2-linker chimera = M1-M2-linker chimera (Caenorhabditis elegans, UniProt G5ECD3+G5EE10); assay type: cell-based, C. elegans; conditions: 5 μM PS, 100 μM GABA
Sequence of M1-M2-linker chimera (G5ECD3 23-506, change not shown): as the sequence (G5ECD3 23-506, stated change not applied) above
Sequence of M1-M2-linker chimera (G5EE10 256-315, change not shown): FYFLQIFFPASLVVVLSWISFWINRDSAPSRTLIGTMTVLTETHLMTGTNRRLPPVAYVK
Procedure: as §1, §4

Sequence of Y(T257F/S264A) (G5ECD3 23-506, stated change not applied): as the sequence (G5ECD3 23-506, stated change not applied) above

Question: With pregnenolone sulfate [PS] as the substance, how does the “reduction of the holding current by PS alone, relative to EC50 GABA-evoked current” value (Y(T257F/S264A); T257F/S264A point mutant, 100 μM PS) read?
Answer: 6-20%

Question: What about the “PS Slope coefficient” value (Y(T257F/S264A); Y(T257F/S264A), at EC50 GABA) of the same substance?
Answer: 0.9 ± 0.08

Question: What about the “PS Slope coefficient” value (Y(S264A)) of the same substance?
Answer: 5.3 ± 1.8

Question: What about the “PS Slope coefficient” value (Y(T257F/M258L)) of the same substance?
Answer: 2.3 ± 0.2

Question: What about the “PS Slope coefficient” value (Y(T257F/M258L/S264A)) of the same substance?
Answer: 1.44 ± 0.1

Question: And the “reduction of the holding current by PS alone, relative to EC50 GABA-evoked current” value (Y(T257F); T257F point mutant, 100 μM PS)?
Answer: 6-20%

Question: And the “PS Slope coefficient” value (Y(T257F); Y(T257F), at EC50 GABA)?
Answer: 1.3 ± 0.06

Question: And the “fold more sensitive to PS than N305R” value (QF-R [1]; QF-R versus N305R)?
Answer: 2.1 fold

Question: What about the “fold less sensitive to PS than the double chimera” value (QF-R [1]; QF-R versus double chimera) of the same substance?
Answer: 6.7 fold

Question: What about the “PS Slope coefficient” value (QF-R [2]) of the same substance?
Answer: 1.5 ± 0.5 (n = 6)

Question: What about the “effect of PS on desensitization” value [3] of the same substance?
Answer: accelerated desensitization

Question: What about the PS sensitivity (M1-M2 chimera) of the same substance?
Answer: significantly less PS sensitive

Question: And the “PS Slope coefficient” value (X(V273I))?
Answer: 1.0 ± 0.02

Question: What about the “fold reduction in PS sensitivity” value (X(I265S, Q259N)) of the same substance?
Answer: 2.2 fold

Question: What about the “PS Slope coefficient” value (Y chimera) of the same substance?
Answer: 10.4 ± 1.3

Question: And the “PS Slope coefficient” value (Z chimera)?
Answer: 1.05 ± 0.03

Question: What about the “PS Slope coefficient” value (YZ chimera) of the same substance?
Answer: 3.5 ± 1.6

Question: And the “PS Slope coefficient” value [4]?
Answer: 1.4 ± 0.1 (n = 4)

Question: What about the “fold increase in PS sensitivity” value (XY chimera) of the same substance?
Answer: 3.7 fold

Question: What about the “PS Slope coefficient” value (X(T269V)) of the same substance?
Answer: 1.2 ± 0.1

Question: What about the “PS Slope coefficient” value (X(I267V)) of the same substance?
Answer: 1.1 ± 0.05

Question: And the “inhibition of GABA-evoked current” value (UNC-49B homomer; 100 μM PS, EC50 GABA)?
Answer: 40%

Question: What about the “PS Slope coefficient” value (UNC-49B homomer; at EC50 GABA) of the same substance?
Answer: 0.7

Question: What about the “inhibition of GABA-evoked current” value (UNC-49B/C heteromer; 100 μM PS, EC50 GABA) of the same substance?
Answer: 95%

Question: And the “PS Slope coefficient” value (UNC-49B/C heteromer; at EC50 GABA)?
Answer: 0.9 ± 0.1 (n = 4)

Question: What about the PS sensitivity (M1-M2-linker chimera) of the same substance?
Answer: equally sensitive to 5 μM PS as the TM chimera
